In paper PMC7948405, “Small-molecule control of neurotransmitter sulfonation” (The Journal of Biological Chemistry, 2020):

Molecular target: T1, SULT1A3 (Homo sapiens, UniProt P0DMM9)
T1 construct: E. coli–optimized SULT coding regions were inserted into a pGEX-6P expression vector; N-His/GST/MBP triple tag (PreScission-cleavable) (N, cleaved yes); made in house; host or cells: E. coli BL21(DE3)
Test: Initial-rate inhibition of SULT-catalyzed 1-HP sulfonation
Format: biochemical
Conditions: parentheses 1 SD; for Ki: in vitro initial rate, 1-HP 5.0 μM, PAPS 0.50 mM, pH 7.5, 25 °C; for % Inhibition at saturation: in vitro, saturating inhibitor
Description: Figure 3 Affinity, specificity, and binding sites of CMP12 and CMP13. A and B, inhibition studies. Initial rates of SULT-catalyzed 1-HP sulfonation are plotted as a function of inhibitor concentration. Rates are normalized to the rate observed in the absence of the inhibitor. Inhibition of the major SULT isoforms found in the brain and liver were tested. SULT activity was monitored via the sulfonation-dependent change in 1-HP fluorescence (λex = 325 nm, λem = 375 nm ([15], [28])). Reaction conditions were as follows: SULT (20 nM, active sites), PAPS (0.50 mM, 17 × Km), 1-HP (5.0 μM, 61 × Km), KPO4 (50 mM), pH 7.5, 25(±2) °C. Less than 5% of the concentration-limiting substrate was converted to the product at reaction endpoints. Each data point is the average of three independent determinations. The lines passing through the data are least-squares fits to a noncompetitive partial-inhibition model (see Experiment and Initial rate). C, CMP8 competes with CMP12 and CMP13. Initial rates at saturating CMP12 or CMP13 are plotted as a function of CMP8 concentration. Rates are normalized to the rate observed in the absence of the inhibitor. […] Lines passing through the data are the predictions of a noncompetitive partial-inhibition model in which inhibitors compete for the same site (see Experiment and Binding competition). SULT, sulfotransferase; PAP, 3′-phosphoadenosine-5′-phosphate; SULT1A3, sulfotransferase 1A3; PAPS, 3’-phosphoadenosine 5’-phosphosulfate; 1-HP, 1-hydroxypyrene.
Initial-rate inhibition parameters were obtained from classical initial-rate studies ([16], [28], [43]). Reactions were initiated by addition of PAPS (0.50 mM, 17 × Km) to a solution containing SULT1A3 (20 nM, active sites), inhibitor (0.2–20 × Ki), 1-HP (5.0 μM, 60 × Km), and KPO4 (50 mM), pH 7.5, 25(±2) °C. Reaction progress was monitored via the fluorescence change associated with 1-HP sulfonation (λex = 325 nm, λem = […] ([15], [28])). Less than 5% of the 1-HP was converted to the product at reaction endpoints. Ki and kcat inh (i.e., turnover at saturating inhibitor and substrate) were obtained by fitting to the following quadratic equation for noncompetitive, partial inhibition at [S] >> Km ([44]):(7) v/Vmax=([Etot]+[ESI](α-1))/[Etot] where(8) α=kcat inh/kcat and(9) [ESI]=[([E]tot+[I]tot+Ki)−[([E]tot+[I]tot+Ki)^2−4·[I]tot·[E]tot]^1/2]/2

T1 sequence (P0DMM9 whole entry): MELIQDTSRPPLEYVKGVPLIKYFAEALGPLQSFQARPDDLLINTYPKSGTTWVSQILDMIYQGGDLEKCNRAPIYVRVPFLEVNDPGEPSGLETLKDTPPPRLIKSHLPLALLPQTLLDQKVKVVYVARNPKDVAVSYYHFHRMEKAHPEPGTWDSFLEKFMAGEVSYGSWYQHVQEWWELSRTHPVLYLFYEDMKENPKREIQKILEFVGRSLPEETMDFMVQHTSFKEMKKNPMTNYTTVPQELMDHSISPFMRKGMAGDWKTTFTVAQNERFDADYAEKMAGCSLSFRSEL

SMILES	Ki	% Inhibition at saturation
CC(C)Cc1ccc2cc(/C=C/C(N)=O)cnc2n1 [CMP13]	11 nM	98 (2) %
CC(C)Cc1ccc2cc(CCC(N)=O)ccc2n1 [CMP12]	70 nM	83 (4) %
